target: T1, mushroom tyrosinase (Agaricus bisporus, UniProt C7FF04); experiment: Kinetic analysis of the inhibition of tyrosinase (Lineweaver–Burk / secondary plots); assay type: biochemical; settings: Lineweaver–Burk plots; Vmax decreased, Km remained the same
T1 construct: purchased Sigma Chemical, USA
Protocol: To understand the inhibitory mechanism of synthetic compounds on the tyrosinase inhibition, kinetic study was performed. […] The kinetic results of the enzyme by the Lineweaver–Burk plot of 1/V versus 1/[S] in the presence of different inhibitor concentrations furnished a series of straight lines (Fig. 13A).
Fig. 13 Lineweaver–Burk plots for inhibition of tyrosinase in the presence of compound 9c. (A) Concentrations of 9c were 0.00, 0.004, 0.008, 0.016 and 0.032 μM, respectively. Substrate L-DOPA concentrations were 0.125, 0.25, 0.5, 1 and 2 mM, respectively. (B) The insets represent the plot of the slope versus inhibitor 9c concentrations to determine inhibition constant. The lines were drawn using linear least squares fit.
A series of experiments were performed to determine the inhibition kinetics of 9c by following the already reported methods.[41,42] The inhibitor concentrations for 9c were 0.00, 0.004, 0.008, 0.016 and 0.032 μM. Substrate L-DOPA concentrations were between 0.125 and 2 mM in all kinetic studies. Pre-incubation and measurement time was the same as discussed in the mushroom tyrosinase inhibition assay protocol. Maximal initial velocity was determined from the initial linear portion of absorbance up to five minutes after addition of enzyme at a 30 s interval. […]

T1 sequence (C7FF04 1-392): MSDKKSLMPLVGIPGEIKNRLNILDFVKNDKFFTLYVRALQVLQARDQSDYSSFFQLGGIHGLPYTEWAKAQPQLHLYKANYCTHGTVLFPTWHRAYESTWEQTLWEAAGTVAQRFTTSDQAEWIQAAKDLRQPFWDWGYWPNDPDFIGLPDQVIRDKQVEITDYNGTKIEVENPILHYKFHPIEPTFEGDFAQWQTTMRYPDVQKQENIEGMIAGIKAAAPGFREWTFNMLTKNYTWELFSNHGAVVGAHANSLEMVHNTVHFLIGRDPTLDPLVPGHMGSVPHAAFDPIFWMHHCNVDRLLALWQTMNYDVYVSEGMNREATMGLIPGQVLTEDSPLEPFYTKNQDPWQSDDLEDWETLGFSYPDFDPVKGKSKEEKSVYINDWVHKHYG

| SMILES | Inhibition type |
| --- | --- |
| Cc1cccc(C)c1NC(=O)c1ccc(CSc2nnc(Cc3csc(N)n3)n2-c2ccccc2)cc1 [9c, 4-[({5-[(2-Amino-1,3-thiazol-4-yl)methyl]-4-phenyl-4H-1,2,4-triazol-3-yl}sulfanyl)methyl]-N-(2,6-dimethylphenyl)benzamide] | non-competitively |

same assay, conditions: calculated from Dixon plots; substrate L-DOPA 0.125–2 mM; read-out: Inhibition constant Ki

| SMILES | Ki |
| --- | --- |
| Cc1cccc(C)c1NC(=O)c1ccc(CSc2nnc(Cc3csc(N)n3)n2-c2ccccc2)cc1 [9c, 4-[({5-[(2-Amino-1,3-thiazol-4-yl)methyl]-4-phenyl-4H-1,2,4-triazol-3-yl}sulfanyl)methyl]-N-(2,6-dimethylphenyl)benzamide] | 16 nM |

tested on: RBCs (erythrocytes); experiment: Hemolytic activity; assay type: cell-based; settings: bovine, erythrocyte (RBC) suspension, pH 7.4, 20 μL compound solution (10 mg mL^−1) in 180 μL RBCs suspension, room temperature, read-out: Hemolysis (%) (mean ± SEM)
Protocol: Bovine blood sample was collected in EDTA that was diluted with saline (0.9% NaCl), and centrifuge at 1000 × g for 10 min. The erythrocytes separated diluted in phosphate buffer saline of pH 7.4 and a suspension was made. Add 20 μL of synthetic compounds solution (10 mg mL^−1) in 180 μL of RBCs suspension and incubate for 30 min at room temperature. PBS was used as negative control and Triton 100-X was taken as positive control.[43,44] The percentage of hemolysis was taken as by using formula: [drawing 24]

| SMILES | hemolysis at 30 min, 1 mg/mL |
| --- | --- |
| Cc1ccc(NC(=O)c2ccc(CSc3nnc(Cc4csc(N)n4)n3-c3ccccc3)cc2)c(C)c1 [9a, 4-[({5-[(2-Amino-1,3-thiazol-4-yl)methyl]-4-phenyl-4H-1,2,4-triazol-3-yl}sulfanyl)methyl]-N-(2,4-dimethylphenyl)benzamide] | 6.47 ± 0.02% |
| Cc1ccc(C)c(NC(=O)c2ccc(CSc3nnc(Cc4csc(N)n4)n3-c3ccccc3)cc2)c1 [9b, 4-[({5-[(2-Amino-1,3-thiazol-4-yl)methyl]-4-phenyl-4H-1,2,4-triazol-3-yl}sulfanyl)methyl]-N-(2,5-dimethylphenyl)benzamide] | 11.76 ± 0.03% |
| Cc1cccc(C)c1NC(=O)c1ccc(CSc2nnc(Cc3csc(N)n3)n2-c2ccccc2)cc1 [9c, 4-[({5-[(2-Amino-1,3-thiazol-4-yl)methyl]-4-phenyl-4H-1,2,4-triazol-3-yl}sulfanyl)methyl]-N-(2,6-dimethylphenyl)benzamide] | 9.41 ± 0.02% |
| Cc1ccc(NC(=O)c2ccc(CSc3nnc(Cc4csc(N)n4)n3-c3ccccc3)cc2)cc1C [9d, 4-[({5-[(2-Amino-1,3-thiazol-4-yl)methyl]-4-phenyl-4H-1,2,4-triazol-3-yl}sulfanyl)methyl]-N-(3,4-dimethylphenyl)benzamide] | 8.82 ± 0.04% |
| Cc1cc(C)cc(NC(=O)c2ccc(CSc3nnc(Cc4csc(N)n4)n3-c3ccccc3)cc2)c1 [9e, 4-[({5-[(2-Amino-1,3-thiazol-4-yl)methyl]-4-phenyl-4H-1,2,4-triazol-3-yl}sulfanyl)methyl]-N-(3,5-dimethylphenyl)benzamide] | 6.47 ± 0.02% |
| Cc1ccccc1NC(=O)c1ccc(CSc2nnc(Cc3csc(N)n3)n2-c2ccccc2)cc1 [9f, 4-[({5-[(2-Amino-1,3-thiazol-4-yl)methyl]-4-phenyl-4H-1,2,4-triazol-3-yl}sulfanyl)methyl]-N-(2-methylphenyl)benzamide] | 12.94 ± 0.03% |
| Cc1cccc(NC(=O)c2ccc(CSc3nnc(Cc4csc(N)n4)n3-c3ccccc3)cc2)c1 [9g, 4-[({5-[(2-Amino-1,3-thiazol-4-yl)methyl]-4-phenyl-4H-1,2,4-triazol-3-yl}sulfanyl)methyl]-N-(3-methylphenyl)benzamide] | 6.52 ± 0.02% |
| Cc1ccc(NC(=O)c2ccc(CSc3nnc(Cc4csc(N)n4)n3-c3ccccc3)cc2)cc1 [9h, 4-[({5-[(2-Amino-1,3-thiazol-4-yl)methyl]-4-phenyl-4H-1,2,4-triazol-3-yl}sulfanyl)methyl]-N-(4-dimethylphenyl)benzamide] | 2.64 ± 0.04% |
| CCc1ccccc1NC(=O)c1ccc(CSc2nnc(Cc3csc(N)n3)n2-c2ccccc2)cc1 [9i, 4-[({5-[(2-Amino-1,3-thiazol-4-yl)methyl]-4-phenyl-4H-1,2,4-triazol-3-yl}sulfanyl)methyl]-N-(2-ethylphenyl)benzamide] | 9.41 ± 0.05% |
| CCc1ccc(NC(=O)c2ccc(CSc3nnc(Cc4csc(N)n4)n3-c3ccccc3)cc2)cc1 [9j, 4-[({5-[(2-Amino-1,3-thiazol-4-yl)methyl]-4-phenyl-4H-1,2,4-triazol-3-yl}sulfanyl)methyl]-N-(4-ethylphenyl)benzamide] | 8.52 ± 0.05% |
| CCOc1cccc(NC(=O)c2ccc(CSc3nnc(Cc4csc(N)n4)n3-c3ccccc3)cc2)c1 [9k, 4-[({5-[(2-Amino-1,3-thiazol-4-yl)methyl]-4-phenyl-4H-1,2,4-triazol-3-yl}sulfanyl)methyl]-N-(3-ethoxyphenyl)benzamide] | 10.35 ± 0.03% |
| CC(C)(C)CC(C)(C)c1ccc(OCCO)cc1 [Triton X, reference compound] | 94.11 ± 0.01% |

target: tyrosinase; experiment: not given; settings: tyrosinase inhibitor reported previously, Fig. 1; cited from earlier work

| SMILES | IC50 |
| --- | --- |
| COc1cc(Cl)ccc1-n1c(SCC(=O)Nc2ccc(Br)cc2)nnc1-c1ccccc1 | 4.8 ± 1.6 nM |
| Nn1c(SCc2cc(=O)c(O)co2)nnc1-c1ccccc1Cl | 5350 ± 150 nM |
| Cc1ccccc1NC(=O)CSc1nnc(Cc2csc(N)n2)n1-c1ccccc1 | 15.6 ± 2.1 nM |
| Clc1ccc(-c2csc(N/N=C/c3ccc[nH]3)n2)cc1 | 7480 ± 190 nM |
| O=C(/C=C/c1ccc(O)cc1)NC(=O)c1ccccc1 [N-acryloyl benzamide Derivatives] | 19200 ± 1140 nM |
| COc1cccc(C(=O)NN2C(=O)c3ccccc3NC2c2ccc(Br)cc2)c1 (centres unmarked) [Quinazolinone Benzamide Derivatives] | 1610 ± 324 nM |

Reference: paper PMC11106707, “Design of potent tyrosinase inhibiting N-arylated-4-yl-benzamides bearing 2-aminothiazole-triazole bi-heterocycles: mechanistic insight through enzyme inhibition, kinetics and computational studies” (RSC Advances, 2024)
